Results from patent US12479847B2 (DANA-FARBER CANCER INSTITUTE, INC., priority 2019, dated 2025).

Columns and labels:
Experiment in all cases: KINOMEscan (ScanMAX) kinase profiling
Type in all cases: binding
panel of 468 kinases [1] = molecular target: T1, panel of 468 kinases (Homo sapiens, UniProt P36888, N841I); conditions: FLT3(N841I); 1 μM; read-out: % control
T1 construct: purchased KINOMEscan (ScanMAX) service
T1 sequence (P36888 27-993 N841I): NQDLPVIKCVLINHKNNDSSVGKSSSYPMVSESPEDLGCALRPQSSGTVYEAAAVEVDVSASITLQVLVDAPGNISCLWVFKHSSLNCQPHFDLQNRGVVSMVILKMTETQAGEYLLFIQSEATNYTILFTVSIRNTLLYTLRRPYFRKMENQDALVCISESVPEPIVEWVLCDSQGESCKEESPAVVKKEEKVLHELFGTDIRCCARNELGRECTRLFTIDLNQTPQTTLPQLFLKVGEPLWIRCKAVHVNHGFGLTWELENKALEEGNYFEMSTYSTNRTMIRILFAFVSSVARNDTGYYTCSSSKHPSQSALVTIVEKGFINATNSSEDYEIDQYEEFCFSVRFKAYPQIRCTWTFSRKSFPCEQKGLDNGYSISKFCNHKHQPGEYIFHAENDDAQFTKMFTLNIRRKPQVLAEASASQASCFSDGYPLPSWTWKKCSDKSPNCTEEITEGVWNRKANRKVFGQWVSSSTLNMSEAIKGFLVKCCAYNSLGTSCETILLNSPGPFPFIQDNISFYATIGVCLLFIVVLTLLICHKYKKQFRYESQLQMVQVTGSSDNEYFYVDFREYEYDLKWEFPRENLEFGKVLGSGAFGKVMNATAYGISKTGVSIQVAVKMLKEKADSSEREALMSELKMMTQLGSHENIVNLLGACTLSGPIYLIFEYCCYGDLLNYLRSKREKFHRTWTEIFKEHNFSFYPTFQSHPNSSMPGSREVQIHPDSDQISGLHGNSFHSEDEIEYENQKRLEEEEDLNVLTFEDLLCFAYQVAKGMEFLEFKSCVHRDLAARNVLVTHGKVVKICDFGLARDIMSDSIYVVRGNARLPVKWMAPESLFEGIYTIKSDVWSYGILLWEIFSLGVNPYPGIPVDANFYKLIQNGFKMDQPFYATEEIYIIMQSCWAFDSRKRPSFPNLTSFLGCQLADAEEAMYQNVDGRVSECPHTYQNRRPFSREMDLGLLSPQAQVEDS

panel of 468 kinases [2] = molecular target: T2, panel of 468 kinases (Homo sapiens, UniProt P49840); conditions: GSK3A; 1 μM; read-out: % control
T2 construct: purchased KINOMEscan (ScanMAX) service
T2 sequence (P49840 whole entry): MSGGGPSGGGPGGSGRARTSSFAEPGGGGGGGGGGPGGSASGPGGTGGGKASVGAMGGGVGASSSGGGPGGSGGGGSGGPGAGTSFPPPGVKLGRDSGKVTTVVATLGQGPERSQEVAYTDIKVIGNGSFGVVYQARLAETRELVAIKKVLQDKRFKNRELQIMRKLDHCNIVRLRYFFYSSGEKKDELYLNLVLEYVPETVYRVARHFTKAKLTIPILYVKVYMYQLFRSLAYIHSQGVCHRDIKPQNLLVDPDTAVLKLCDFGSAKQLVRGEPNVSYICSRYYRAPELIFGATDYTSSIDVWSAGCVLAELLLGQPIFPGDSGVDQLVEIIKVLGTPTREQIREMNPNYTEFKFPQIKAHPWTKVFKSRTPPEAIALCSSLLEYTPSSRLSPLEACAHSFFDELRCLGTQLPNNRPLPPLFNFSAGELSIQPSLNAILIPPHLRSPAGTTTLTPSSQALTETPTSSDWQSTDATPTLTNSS

panel of 468 kinases [3] = molecular target: T3, panel of 468 kinases (Homo sapiens, UniProt Q9NRP7); conditions: STK36; 1 μM; read-out: % control
T3 construct: purchased KINOMEscan (ScanMAX) service
T3 sequence (Q9NRP7 1-1315): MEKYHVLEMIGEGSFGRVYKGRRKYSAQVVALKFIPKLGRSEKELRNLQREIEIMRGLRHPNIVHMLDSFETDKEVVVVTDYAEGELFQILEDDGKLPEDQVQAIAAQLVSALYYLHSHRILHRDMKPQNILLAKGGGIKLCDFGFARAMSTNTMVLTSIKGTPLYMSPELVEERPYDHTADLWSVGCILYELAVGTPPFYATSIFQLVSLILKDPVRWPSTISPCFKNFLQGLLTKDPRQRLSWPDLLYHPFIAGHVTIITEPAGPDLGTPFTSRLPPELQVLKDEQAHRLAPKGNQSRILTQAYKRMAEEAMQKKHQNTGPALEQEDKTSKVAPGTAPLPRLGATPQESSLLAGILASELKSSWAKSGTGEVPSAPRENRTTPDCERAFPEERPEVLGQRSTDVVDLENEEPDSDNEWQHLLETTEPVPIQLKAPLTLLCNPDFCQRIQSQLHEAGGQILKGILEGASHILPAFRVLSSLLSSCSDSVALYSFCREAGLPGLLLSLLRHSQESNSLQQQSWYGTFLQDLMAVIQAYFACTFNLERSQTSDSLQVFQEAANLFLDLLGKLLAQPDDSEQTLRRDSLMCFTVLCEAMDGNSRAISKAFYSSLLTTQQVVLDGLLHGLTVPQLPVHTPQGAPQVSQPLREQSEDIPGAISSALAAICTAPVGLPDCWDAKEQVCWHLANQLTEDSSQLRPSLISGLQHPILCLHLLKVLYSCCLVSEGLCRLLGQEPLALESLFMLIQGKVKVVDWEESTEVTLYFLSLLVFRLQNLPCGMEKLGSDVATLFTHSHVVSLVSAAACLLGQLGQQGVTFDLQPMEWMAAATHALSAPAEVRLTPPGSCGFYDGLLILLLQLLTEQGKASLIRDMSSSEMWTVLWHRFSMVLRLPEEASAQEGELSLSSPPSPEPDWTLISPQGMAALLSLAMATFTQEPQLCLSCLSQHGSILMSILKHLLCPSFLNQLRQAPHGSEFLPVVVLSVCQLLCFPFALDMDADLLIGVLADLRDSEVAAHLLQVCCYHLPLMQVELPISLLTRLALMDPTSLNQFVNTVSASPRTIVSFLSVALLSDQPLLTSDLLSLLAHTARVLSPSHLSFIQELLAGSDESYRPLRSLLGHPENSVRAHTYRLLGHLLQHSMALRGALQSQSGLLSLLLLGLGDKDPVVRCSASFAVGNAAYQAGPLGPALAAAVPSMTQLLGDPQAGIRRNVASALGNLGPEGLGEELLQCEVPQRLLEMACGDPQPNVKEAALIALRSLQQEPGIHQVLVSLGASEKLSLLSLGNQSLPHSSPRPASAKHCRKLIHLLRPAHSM

## CNc1nc(Nc2ccc(S(=O)(=O)N3CCC(N4CCOCC4)CC3)cc2OC)nc2[nH]cc(Cl)c12 [Compound 12, 5-chloro-N2-(2-methoxy-4-((4-morpholinopiperidin-1-yl)sulfonyl)phenyl)-N4-methyl-7H-pyrrolo[2,3-d]pyrimidine-2,4-diamine]
Panel of 468 kinases [1]
  remaining binding at 1 µM: 85%
Panel of 468 kinases [2]
  remaining binding at 1 µM: 91%
Panel of 468 kinases [3]
  remaining binding at 1 µM: 100%

## CNc1nc(Nc2ccc(C(=O)N3CCC(N4CCOCC4)CC3)c3c2OCO3)nc2[nH]cc(Cl)c12 [Compound 75, (7-((5-chloro-4-(methylamino)-7H-pyrrolo[2,3-d]pyrimidin-2-yl)amino)benzo[d][1,3]dioxol-4-yl)(4-morpholinopiperidin-1-yl)methanone]
Panel of 468 kinases [1]
  remaining binding at 1 µM: 65%
Panel of 468 kinases [2]
  remaining binding at 1 µM: 87%
Panel of 468 kinases [3]
  remaining binding at 1 µM: 100%

## CNc1nc(Nc2ccc(P3(=O)CCN(C4CCOCC4)CC3)cc2OC)nc2[nH]cc(Cl)c12 [Compound 77, 4-(4-((5-chloro-4-(methylamino)-7H-pyrrolo[2,3-d]pyrimidin-2-yl)amino)-3-methoxyphenyl)-1-(tetrahydro-2H-pyran-4-yl)-1,4-azaphosphinane 4-oxide]
Panel of 468 kinases [1]
  remaining binding at 1 µM: 99%
Panel of 468 kinases [2]
  remaining binding at 1 µM: 90%
Panel of 468 kinases [3]
  remaining binding at 1 µM: 100%
